According to PubChem BioAssay AID652063 (Molecular Libraries Program, Specialized Chemistry Center, …, 2013):
Activity calls are given as the source filed them. How the calls were made is not given here.

Each molecule was assayed on mouse cells, CHOP mRNA qRT-PCR (assay: Inhibitors of CHOP mRNA levels in mouse cells, qRT-PCR, medium throughput (AID 652063)).
For C=CCn1c(C)cc(C2=NN=C(NCC)SC2)c1C, the IC50 was 6.18 µM (inactive).
CCN=C1NN=C(c2cc(C)n(Cc3ccco3)c2C)CS1 was tested, and the IC50 was 3.73 µM (inactive).
With Cc1ccc(NC(=O)O/N=C/c2c(C)nn(C(C)(C)C)c2C)cc1Cl the IC50 was 4.53 µM (inactive).
In the case of Cc1cc(C2=NNC(=NC3CC3)SC2)c(C)n1-c1ccccc1F, the IC50 was 2.89 µM (inactive).
In the case of CC(C)(C)c1ccc(-c2noc(CCC(N)=O)n2)cc1, the IC50 was > 20 µM (inactive).
For Cc1nn(C(C)(C)C)c(C)c1/C=N/OC(=O)Nc1ccc(Cl)cc1, the IC50 was 18.4 µM (inactive).
In the case of CCOc1ccc(-c2nc(CSCC(=O)NCc3ccco3)c(C)o2)cc1, the IC50 was 4.37 µM (inactive).
CC(C)(C)c1ccc(C(=O)Nc2ccc(CC(=O)O)cc2)o1 was tested, and the IC50 was > 20 µM (inactive).
In the case of Cc1cc(C(=O)COC(=O)c2ccccc2O)c(C)n1Cc1cccs1, the IC50 was 6.12 µM (inactive).
With Cc1cc(C2=NNC(=NC3CC3)SC2)c(C)n1-c1ccccc1 the IC50 was 3.58 µM (inactive).
With Cc1ccc(NC(=O)c2cc3ccccc3oc2=O)cc1S(=O)(=O)N(C)C the IC50 was > 20 µM (inactive).
